In brackets after ≈: the same amount, converted by molar mass. Where a SMILES comes first, the peptide text is derived from it. Bridges are numbered along the chain shown (N, C = ends).
Assays:
[1] = system: E. coli O111:B4 LPS-challenged BALB/c mice; assay: LPS-challenged mice experiment (septicemia model); assay type: in vivo
Experimental: Female BALB/c mice (5-6 weeks) was provided by HFK Bioscience Co. (Beijing, China). All mice were raised in laminar flow cabinets and housed individually in a room with strictly controlled temperature and humidity, where a 12-hour light and 12-hour dark cycle was implemented, and mice had free access to food and water throughout the experimental period.
E. coli O111:B4 LPS (Sigma-Aldrich) at a concentration of 15 mg/L was injected into the peritoneal cavity of female BALB/c mice (age 7 weeks, weight 15 ± 0.5 g), and approximately 30 min after the challenge of E. coli O111:B4 LPS, MccJ25 was orally gavaged to the mice at a concentration of 4.55 or 9.1 mg per kg body weight (BW). The concentrations of MccJ25 were selected based on our previous study ([24]). Mice were followed for 72 h to test the survival rate of mice that were later sacrificed. However, for LPS treated mice, when the lifespan of the mice was around 50%, the mice were sacrificed. The serum from mice were obtained. The lung, liver, spleen, jejunum, and ileum were harvested, kept in liquid nitrogen immediately, stored at -80°C until analysis. For histopathological assessment, tissues and organs were fixed using 4% paraformaldehyde, hematoxylin eosin (H&E) was applied to examine the histological and pathological changes according to the standard protocol as described previously ([24]).
In the LPS-challenged mice experiment, lifespan of mice was monitored for 72 h. In the cocktail of MDR E. coli strains infection experiment, BW change, rectal temperature, diarrhea scores and fecal image, or survival rate were measured. For the diarrhea score evaluation producer was referred to previous study ([24]).
The concentrations of tumor necrosis factor-α (TNF-α), interleukin-6 (IL-6), IL-4, interferon (IFN)-γ, and nitric oxide (NO) in serum were measured. In addition, TNF-α and NO levels were also measured in the supernatant of RAW264.7 cells. ELISA was performed using a commercial ELISA kit (eBioscience, San Diego, USA). LPS levels in plasma were analyzed using the QCL-1000 kit (Xiamen, China) based on the manufacturer’s standards. On the day of sacrifice, eyes were extracted with ethylenediaminetetraacetic acid (EDTA), and blood was collected into clean test tubes. Peripheral hemograms and white blood cells (WBCs) were analyzed using a Coulter LH755 hematology analyzer. The levels of serum D-lactate were measured using ELISA kit (Jiancheng, Nanjing, China) according to the manufacturer’s protocols.
The extent and mRNA expression levels of TNF-α, IL-6, IL-10, IL-1β, IFN-γ, and TLR4, and NF-κB in each body part of the jejunum, ileum, colon, and spleen and in RAW264.7 cells were clarified by RT–PCR as previously described ([31]). Primers for TNF-α, IL-6, IL-10, IL-1β, IFN-γ, TLR4, and NF-κB are described in Table S1 . The specific assay steps were as follows: total RNA was extracted from the jejunum, ileum, spleen, and cells by TRIzol reagent (Invitrogen, Carlsbad, CA). Combined with gel electrophoresis and a NanoDrop 2000 spectrophotometer (Thermo Fisher Scientific, Wilmington, DE), the quality and quantity of total RNA were determined. […] Then the 2^-ΔΔCt method was used for the next step of analysis.
Frozen tissue samples and fresh cells were homogenized in RIPA lysis buffer containing protease inhibitors (Applygen, Beijing, China). Protein levels were determined using a BCA protein assay kit (Thermo Fisher Scientific, Rockford, IL). Thirty micrograms of tissue and cell protein samples were electrophoresed on SDS polyacrylamide gels and electrotransferred to PVDF membranes (Millipore). […]

E. coli ATCC25922 = assay: MIC/MBC broth dilution, standard strain; assay type: cell-based
Experimental: (§1) The minimum inhibitory concentration (MIC) refers to the lowest concentration that can produce a significant hindrance to bacterial growth in a drug sensitivity test by adopting a broth dilution, with certain refinements and modifications based on the previous description ([25], [26]). In short, MccJ25 was dissolved in sterilized distilled water (SDW), serial 2-fold dilutions were prepared in Mueller-Hinton broth (MHB) through a 96-well microtiter plate, and the final concentration of MccJ25 was maintained in the range of 0.003125 to 256 μg/mL. Then, 2 μL of standard and clinically relevant overnight broth cultures of bacteria were inoculated into each well at a concentration of 5 × 10^6 CFU/mL. Microtiter plates were incubated at 37°C for one full day. Two groups were set up: positive (medium with inoculum) and negative (medium only) controls. The minimum bactericidal concentration (MBC) was measured in LB medium and refers to the first drug dilution value at which the initial bacterial concentration was reduced by 99.99%. The final analysis was determined by the results of three replicated and independent experiments. To further assess and clarify the antimicrobial activity of MccJ25, the protective ability against E. coli adhesion, live/dead assay, and killing curve were performed, the detailed methods were provided in Supplementary Materials .

E. coli CVCC1515 = assay: MIC/MBC broth dilution, standard strain; assay type: cell-based
Experimental: as §1

E. coli K88 (ETEC K88) = assay: Killing curves (bactericidal activity at different growth phases); assay type: cell-based
Experimental: Figure 1 Bactericidal activity assay of MccJ25 against E coli K88. Different concentrations of E coli K88 were cultured in LB containing different levels of MccJ25. E coli K88 cells (5 × 10^5 CFU/mL) were incubated and grown to different stages, including early-log (A), late-log (B) and stationary (C) phases. Additionally, bacteria, 5 × 10^8 CFU/mL, were cultured and grown to early-log (D), late-log (E) and stationary (F) phases. Data are means ± standard error of mean from 6 biological replicates.
A purified single colony of E. coli K88 was inoculated into 5 mL of LB. Then, culture was incubated at 37◦C with shaking at 200 rpm overnight. The next day, the culture was diluted 1:100 in fresh LB and incubated at 37◦C with shaking at 200 rpm again. To test antimicrobial activity, the bacteria were grown until they reached log phase. […] The cultures were serially diluted with sterilized saline water and plated on LB agar at different hours. The plates were incubated at 37◦C overnight to count colony. Colonies were counted to determine CFU/mL. The experiment was conducted with two replicates in three independent trials. A Live/Dead BacLight Bacterial Viability Kit 7 (Molecular Probes, Inc., Eugene) was used to test bacterial viability. […] E. coli K88 cultures were incubated at 37◦C for 2 h and then incubated in the dark at ambient temperature with SYTO 9 and propidium iodide for 15 min. Bacteria were observed using a fluorescence microscope (EVOS XL Cell Imaging System).

[2] = LB medium, 99.99% reduction, three independent experiments
[3] = broth dilution in MHB, 37°C, one day, three independent experiments

Compound: CC[C@H](C)[C@H](NC(=O)CNC(=O)[C@@H](NC(=O)[C@H](Cc1ccccc1)NC(=O)[C@H](Cc1ccc(O)cc1)NC(=O)[C@@H]1CCC(=O)NCC(=O)NCC(=O)N[C@@H](C)C(=O)NCC(=O)N[C@@H](Cc2c[nH]cn2)C(=O)N[C@@H](C(C)C)C(=O)N2CCC[C@H]2C(=O)N1)C(C)C)C(=O)NCC(=O)N[C@H](C(=O)N1CCC[C@H]1C(=O)N[C@H](C(=O)N[C@@H](CO)C(=O)N[C@@H](Cc1ccccc1)C(=O)N[C@@H](Cc1ccc(O)cc1)C(=O)NCC(=O)O)[C@@H](C)CC)[C@@H](C)O [MccJ25, microcin J25] (GGAGHVPEYFVGIGTPISFYG-OH; lactam N-8 (inferred); C-terminus assumed)
- jejunum and ileum histopathology ([1]; 4.55 mg/kg BW): moderate villus damage and epithelial cell sloughing
- jejunum and ileum histopathology ([1]; 9.1 mg/kg BW, compared with the control group): few changes in the villi, crypts and intestinal mucosa
- serum levels of TNF-α, IL-6 and NO ([1]; ELISA, after LPS treatment): showed a decreasing trend
- lung histopathology ([1]; H&E): partially reverse swelling and lung damage
- liver and spleen histopathology ([1]; H&E, MccJ25 30 min after LPS): substantially reduced the degree of edema and degradation of cytoplasmic proteins
- WBC count ([1]; different concentrations of MccJ25 vs LPS group): significantly reduce the counts of leukocytes
- TNF-α, TLR4 and IL-6 mRNA expression ([1]; ileum, colon, or spleen, q-PCR): significantly decreased
- plasma LPS concentrations ([1]; vs mice treated with LPS only): significantly decreased
- phosphorylated NF-κB, p38 MAPK and IκB protein expression ([1]; western blot, vs LPS-infected group): significantly decreased
- MBC (E. coli ATCC25922; [2]): 0.500 µg/mL (≈ 0.237 µM)
- MIC (E. coli ATCC25922; [3]): 0.125 µg/mL (≈ 0.0593 µM)
- MIC/MBC (E. coli ATCC25922; ratio): 0.250
- MBC (E. coli CVCC1515; [2]): 2.000 µg/mL (≈ 0.949 µM)
- MIC (E. coli CVCC1515; [3]): 0.500 µg/mL (≈ 0.237 µM)
- MIC/MBC (E. coli CVCC1515; ratio): 0.250
- time in which all inoculants were killed (E. coli K88 (ETEC K88); at the indicated MICs, stationary phase): ≤ 6 h
- time in which all inoculums were killed (E. coli K88 (ETEC K88); inoculum 5 × 10^5 CFU/mL, 2 × MIC, each growth period (early log, late log, stationary), LB, 37°C): ≤ 4 h
- reduction of bacterial count (E. coli K88 (ETEC K88); inoculum 5 × 10^5 CFU/mL, 4 × MIC, after 2 h incubation): 5 log
- reduction of bacterial count (E. coli K88 (ETEC K88); inoculum 5 × 10^5 CFU/mL, at the indicated MICs, at 2 h, all phases): approximately 4 log
- reduction of bacterial count (E. coli K88 (ETEC K88); inoculum 5 × 10^8 CFU/mL at log phase, 4 × MIC, 12 h): 8 log
- reduction of bacterial count (E. coli K88 (ETEC K88); inoculum 5 × 10^8 CFU/mL, 1 × MIC, within 7 h): 6 log
